Results from patent US5374765A, “Method for extracting an amino acid ester from a hydrous solution of a mineral acid salt thereof” (priority 1990, dated 1994).

Experiment: Extraction of amino acid ester from aqueous mineral acid salt solution into 1,2-dichloroethane at constant pH (Table 1)
Procedure: 0.1 mole of a mineral acid salt of an amino acid ester, shown in Table 1 was dissolved or suspended in 30 g of water. Thereto was added 60 g of 1,2-dichloroethane. While the mixture was kept at 20°-25° C. and stirred, a 20% water solution of sodium hydroxide was dropwise added thereto in 0.5 hour, and then stirring and extraction were carried out for 0.5 hour while the pH of the aqueous layer was kept at a constant level in the range of 6.5-8.5. The organic layer was separated from the aqueous layer. Then, there were measured percent extraction of fed amino acid ester in organic layer, percent remaining of said ester in aqueous layer, and percent hydrolysis of said ester in aqueous layer (the hydrolyzed ester remains in the aqueous layer as an amino acid).

[1] = pH 6.5, 20-25 °C, 1,2-dichloroethane
[2] = pH 7.5, 20-25 °C, 1,2-dichloroethane
[3] = pH 8.5, 20-25 °C, 1,2-dichloroethane

Compound	Ester in aqueous layer, percent hydrolysis [1] [%]	Ester in aqueous layer, percent remaining [1] [%]	Percent extraction of ester in organic layer [1] [%]	Ester in aqueous layer, percent hydrolysis [2] [%]	Ester in aqueous layer, percent remaining [2] [%]	Percent extraction of ester in organic layer [2] [%]	Ester in aqueous layer, percent remaining [3] [%]	Percent extraction of ester in organic layer [3] [%]	Ester in aqueous layer, percent hydrolysis [3] [%]	Ester in aqueous layer, percent remaining (pH 6.5) [%]	Ester in aqueous layer, percent remaining (pH 7.5) [%]	Ester in aqueous layer, percent remaining (pH 8.5) [%]	Ester in aqueous layer, percent hydrolysis (water/1,2-dichloroethane, pH 6.5) [%]	Ester in aqueous layer, percent hydrolysis (water/1,2-dichloroethane, pH 7.5) [%]	Ester in aqueous layer, percent hydrolysis (water/1,2-dichloroethane, pH 8.5) [%]
Cl.N[C@@H](Cc1ccccc1)C(=O)OCc1ccccc1 [Benzyl L-phenylalaninate hydrochloride]	0	6	94	0	1	99	1	97							
CCOC(=O)[C@@H](N)Cc1ccccc1.Cl [Ethyl L-phenylalaninate hydrochloride]	0	8	92	0	2	98	1	96	3						
CCOC(=O)c1ccccc1N.Cl [Ethyl o-aminobenzoate hydrochloride]	0	6	94	1	2	97	1	96	3						
COC(=O)[C@@H](N)CCCCN.Cl [Methyl L-lysinate hydrochloride]	0	18	82	0	9	91	3	94	3						
COC(=O)[C@@H](N)CO.Cl [Methyl L-serinate hydrochloride]	0	14	86	0	5	95	2	94	4						
COC(=O)CCCN.Cl [Methyl γ-aminobutyrate hydrochloride]	0	11	89	0	4	96	2	95	3						
Cl.N[C@@H](Cc1ccccc1)C(=O)Oc1ccccc1 [Phenyl L-phenylalaninate hydrochloride]	0	6	94	2	1	97	1	92	7						
Methyl L-aspartate hydrochloride			88			96		96		12	3	1	0	1	3
